In series [1] the test system is winter rape (BRSNW, Brassica napus). The series is described as follows: Greenhouse postemergence trial, % visual injury. The class given is in vivo. Particulars: for % visual injury, Obs: BRSNW.
The test system of series [2] is velvetleaf (Abutilon theophrasti, ABUTH). The series is described as follows: Greenhouse postemergence trial, % visual injury. The series is classed as in vivo. Particulars: Abutilon theophrasti, post-emergence, read-out: % visual injury, Obs.
Series [3] relates to sunflower (Helianthus annus, HELAN). The series can be described thus: Greenhouse postemergence trial, % visual injury. The series is classed as in vivo. Particulars: HELAN; naptalam 140 g ai/ha.
Series [4] has as its system wild buckwheat (Polygonum convolvulus, POLCO). The series can be described thus: Greenhouse postemergence trial, % visual injury. The class given is in vivo. The settings on record: for % visual injury, Obs: POLCO.
Series [5] has as its system turnip (Brassica rapa, BRSRR). The series is described as follows: Greenhouse postemergence trial, % visual injury. The class given is in vivo. Particulars: BRSRR; naptalam 140 g ai/ha.
The test system of series [6] is Chinese kale (Brassica alboglabra, BRSAG). The series can be described thus: Greenhouse postemergence trial, % visual injury. The class given is in vivo. The settings on record: BRSAG; naptalam 140 g ai/ha.
The subject of series [7] is rutabaga (Brassica napus var. napobrassica, BRSNA). The series can be described thus: Greenhouse postemergence trial, % visual injury. Particulars: BRSNA; naptalam 140 g ai/ha. The class given is in vivo.
The test system of series [8] is Roundup Ready rape (Brassica napus, BRSNN-RR). The series can be described thus: Greenhouse postemergence trial, % visual injury. The class given is in vivo. The settings on record: naptalam 140 g ai/ha.
Series [9] relates to Canadian thistle (CIRAR, Cirsium arvense). The series can be described thus: Greenhouse postemergence trial, % visual injury. The settings on record: CIRAR.
Series [10] concerns wild pansy (Viola tricolor, VIOTR). The series can be described thus: Greenhouse postemergence trial, % visual injury. Particulars: VIOTR.
For series [11], the system named is winter wheat (TRZAW). The series can be described thus: Greenhouse postemergence trial, crop phytotoxicity (% visual injury). The settings on record: for % visual injury, Obs: TRZAW.
The test system of series [12] is maize (ZEAMX). Described as above. Particulars: ZEAMX.
Series [13] concerns common rice (ORYSA). The description is as above. Particulars: ORYSA.
The test system of series [14] is pigweed (AMARE, Amaranthus retroflexus). The series is described as follows: Greenhouse postemergence trial, % visual injury. The series is classed as in vivo. Particulars: for % visual injury, Obs: AMARE.
Series [15] relates to common lambsquarters (CHEAL, Chenopodium album L.). The series can be described thus: Greenhouse postemergence trial, % visual injury. The class given is in vivo.
For series [16], the system named is kochia (KCHSC, Kochia scoparia). The series is described as follows: Greenhouse postemergence trial, % visual injury. The class given is in vivo. The protocol: Following the protocol in Example 1, compound 1 and compound 2 were combined with 2,4 D EHE (EC) and applied to kochia (KCHSC, Kochia scoparia) and the phytotoxicity of the herbicidal compositions was measured.
Following the protocol in Example 1, compound 1 (EC) and Compound 2 (SC) were combined with diflufenzopyr and applied to kochia (Kochia scoparia, KCHSC) and the phytotoxicity of the herbicidal composition was measured.

Series [17] concerns grain sorghum (Sorghum vulgare, SORVU). The series is described as follows: Greenhouse postemergence trial, % visual injury. The class given is in vivo. Particulars: SORVU, 140 g ae/ha.
The test system of series [18] is common chickweed (Stellaria media, STEME). The series can be described thus: Greenhouse postemergence trial, % visual injury. The series is classed as in vivo. The settings on record: STEME.
The test system of series [19] is soybean (Glycine max, GIAMA). The series can be described thus: Greenhouse postemergence trial, % visual injury. The series is classed as in vivo. Particulars: GLXMA, 140 g ae/ha.
The test system of series [20] is poinsettia (Euphorbia heterophylla, EPHHL). The series can be described thus: Greenhouse postemergence trial, % visual injury. The settings on record: Euphorbia heterophylla, post-emergence.
Series [21] has as its system ivyleaf morningglory (Ipomoea hederacea, IPOHE). The series can be described thus: Greenhouse postemergence trial, % visual injury. Particulars: Ipomoea, post-emergence.
The subject of series [22] is nutsedge (Cyperus esculentus, CYPES). The series is described as follows: Greenhouse postemergence trial, % visual injury. Particulars: CYPES. The series is classed as in vivo.
In series [23] the test system is large crabgrass (Digitaria sanguinalis, DIGSA). The series is described as follows: Greenhouse postemergence trial, % visual injury. The series is classed as in vivo. The settings on record: Digitaria sanguinalis, post-emergence; DIGSA; MCPA EHE 140 g ae/ha; read-out: % visual injury, Obs.
Series [24] concerns kochia (KCHSC, Kochia scoparia). The series is described as follows: Patio postemergence trial, % visual injury. Particulars: 280 g ae/ha alone, 20-22 d. The series is classed as in vivo. The procedure:
(§1) The plants were grown for 7-36 days (d) on a fenced, open-air patio. Nutrients and water were added on a regular basis.
(§2) Temperatures and photoperiods were dependent on the natural weather conditions during the trials. Weather conditions during trials were conducive for plant growth and development.

Series [25] deals with winter wheat (TRZAW). The series can be described thus: Patio postemergence trial, crop phytotoxicity (% visual injury). The series is classed as in vivo, Triticum aestivum. The settings on record: 280 g ae/ha alone, 20-22 d. The procedure:
as §1, §2

Series [26] deals with spring rape (Brassica napus, BRSNN). The series can be described thus: Greenhouse postemergence trial, % visual injury. The settings on record: Brassica napus, post-emergence, read-out: % visual injury, Obs.
The subject of series [27] is spring barley (HORVS). The series is described as follows: Greenhouse postemergence trial, crop phytotoxicity (% visual injury).
Where [28] appears, read: crop, 280 g ae/ha alone, 20-22 d.

Each structure is given as a SMILES string. Read-outs that look alike come from different tables or passages of the source.

In the case of `O=C(O)c1ccccc1C(=O)Nc1cccc2ccccc12` [naptalam, reference compound], the “% visual injury, Obs” value in series [1] (naptalam 140 g ai/ha), in [3], in series [4] (naptalam 140 g ai/ha), in series [5], in series [6] and in series [7] was 0% each time. Also, the “% visual injury, Obs” value in series [8], in series [9] (naptalam 140 g ai/ha), in [10] (naptalam 140 g ai/ha), in series [11] (naptalam 140 g ai/ha), in series [12] (naptalam 140 g ai/ha) and in [13] (naptalam 140 g ai/ha) was 0% each time. The pest or weed control at 140 g/ha in series [2] turned out to be 0%.
Consider `O=C(O)c1c(Cl)ccc2cc(Cl)cnc12` [quinclorac, reference compound], for which the “% visual injury, Obs” value was determined as 10% in series [14] (140 g ae/ha); 0% in series [1] (140 g ae/ha); 5% in series [15] (CHEAL, 140 g ae/ha); 0% in series [17]; 10% in series [18] (140 g ae/ha); 30% in series [19]. The “% visual injury, Obs” value in [10] (140 g ae/ha) is 10%; in [11] (140 g ae/ha) it was 0%; in series [12] (140 g ae/ha) it was 0%; in series [13] (140 g ae/ha), 0%. The pest or weed control at 140 g/ha turned out to be 0% in series [16] (Bassia scoparia, post-emergence, KCHSC, 140 g ae/ha, read-out: % visual injury, Obs); 0% in [2] (ABUTH, 140 g ae/ha); 20% in [20] (read-out: % visual injury, Obs, EPHHL, 140 g ae/ha); 65% in [21] (read-out: % visual injury, Obs, IPOHE, 140 g ae/ha).
For `CCCCC(CC)COC(=O)COc1ccc(Cl)cc1C` (stereo not drawn) [MCPA EHE, 2-ethylhexyl (4-chloro-2-methylphenoxy)acetate], the “% visual injury, Obs” value was 70% in series [14] (MCPA EHE 140 g ae/ha); 50% in series [22] (280 g ae/ha); 0% in series [22] (MCPA EHE 140 g ae/ha); 70% in series [4] (280 g ae/ha); 65% in [4] (420 g ae/ha); 10% in series [18] (280 g ae/ha). Also, the “% visual injury, Obs” value was found to be 75% in series [9] (280 g ae/ha); 75% in [10] (280 g ae/ha); 60% in series [10] (MCPA EHE 140 g ae/ha); 0% in series [27] (HORVS, 420 g ae/ha); 0% in [11] (280 g ae/ha); 0% in [11] (420 g ae/ha). Also, the “% visual injury, Obs” value in [11] (MCPA EHE 140 g ae/ha) was 3%; in series [12] (280 g ae/ha), 0%; in series [12] (MCPA EHE 140 g ae/ha), 0%; in [13] (280 g ae/ha), 0%; in series [13] (MCPA EHE 140 g ae/ha), 3%. Further, the pest or weed control at 280 g/ha in series [14] (Amaranthus retroflexus, post-emergence, 280 g ae/ha alone, 20-22 d, read-out: % visual injury Obs) came out at 35%; in series [15] (Chenopodium album, post-emergence, 280 g ae/ha alone, 20-22 d, read-out: % visual injury Obs), 75%; in series [16] (Bassia scoparia, post-emergence, KCHSC, 280 g ae/ha, read-out: % visual injury, Obs) it was 0%; in series [2] (ABUTH, 280 g ae/ha), 65%. The “% visual injury Obs” value is listed as 73% in series [1] (280 g ae/ha alone, 20-22 d); 0% in series [16] (280 g ae/ha alone, 20-22 d); 20% in series [24]; 0% in series [25]; 0% in series [27] (setting [28]); 3% in series [11] (setting [28]). Further, the pest or weed control at 140 g/ha is 0% in [2] (ABUTH, MCPA EHE 140 g ae/ha); 10% in series [23]; 0% in series [20] (read-out: % visual injury, Obs, EPHHL, MCPA EHE 140 g ae/ha); 80% in series [21] (read-out: % visual injury, Obs, IPOHE, MCPA EHE 140 g ae/ha). Besides, the entries for the “% visual injury (Obs)” value in series [4] (MCPA EHE 420 g ae/ha), in [27] (MCPA EHE 420 g ae/ha) and in series [11] (MCPA EHE 420 g ae/ha) were 65%, 0% and 0%, respectively. The plant injury at 140 g/ha in series [26] is 35%. The plant injury at 280 g/ha in series [26] came to 95%.

The values are drawn from patent US9521847B2, “Synergistic weed control from applications of pyridine carboxylic acid herbicides and synthetic auxin herbicides and/or auxin transport inhibitors” (Dow AgroSciences LLC, priority 2014, dated 2016).
